Source: ChEMBL document CHEMBL1201862, “PubChem BioAssay data set” (2004)
Activity calls are given as the source filed them.

Columns and labels:
[1] = viability loss in Vero cells – cytotoxicity control for Vif-APOBEC3G degradation inhibitor project, dose response (AID 1117358); format: functional; conditions: Vero
[2] = HIV-1 AD8 envelope cell-cell fusion blockers – cherry-pick, dose response (AID 652062); format: functional, cell-based;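 also: luciferase signal from cell-cell fusion driven by HIV-1 clade B AD8 Env; potency is for inhibitors of fusion seen as a drop in luminescence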
INS1 = assay: INS-1E survival protection against cytokine death – cell-based, luminescence, retest, dose response (AID 449756); format: functional; conditions: Rattus norvegicus;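 also: cell death triggered by IL-1 beta plus TNF-alpha plus IFN-gamma mixture; protective hits raise ATP signal compared with cytokine alone wells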
Protein Wnt-3a = Protein Wnt-3a (Mus musculus, UniProt P27467); assay: antagonism of Wnt3a pathway luciferase reporter – Wnt-LIGHT cells, luminescence, selectivity assay for Gli-SUFU antagonist project, dose response (AID 651570); format: functional; conditions: read-out: IC50_Mean;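 also: Wnt-LIGHT reporter cells stimulated with conditioned medium from Wnt3a-producing cells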
[3] = off-target signal loss in HeLa-CEM21 co-culture – HeLa F-luc CTL cells, cherry-picked, counter-screen for HIV-1 Env fusion inhibitor project, dose response (AID 652040); format: functional, cell-based;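 also: potency for signal decrease marking cytotoxic or nonspecific inhibition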
[4] = viability loss in CEM21 cells – cell-based, plate reader, dry powder, cytotoxicity control, dose response (AID 687026); format: functional
[5] = reduction of Shn3 3'UTR-driven luciferase in osteoblasts – cell-based, Clone20 osteoblasts, firefly luciferase, cherry-picked, dose response (AID 624132); format: functional;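 also: firefly luciferase luminescence from reporter carrying the Shn3 3'UTR in osteoblasts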
[6] = blockers of HIV-1 envelope-mediated cell-cell fusion – cherry-pick, dose response (AID 652057); format: functional, cell-based
[7] = loss of viability in HepG2 cells – cell-based, CellTiter-Glo, cherry-picked, cytotoxicity control for Shn3 inhibitor project, dose response (AID 624134); format: functional
[8] = non-specific 3'UTR reporter inhibition in Clone20-Shn3RL – cell-based, Renilla luciferase, cherry-picked, counter-screen for Shn3 inhibitor project, dose response (AID 624133); format: functional
[9] = general mammalian cell viability loss – activator set, cherry-pick, cytotoxicity control for miR-122 modulator project, dose response (AID 720690); format: functional, cell-based;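 also: HEK293T human cells scored for general mammalian cytotoxicity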
[10] = general mammalian cell viability loss – inhibitor set, cherry-pick, set 2, cytotoxicity control for miR-122 modulator project, dose response (AID 720697); format: functional, cell-based
[11] = viability loss in A549 lung cells – cell-based, 24 h, CellTiter-Glo luminescence, cherry-picks, cytotoxicity control, dose response (AID 1053115); format: functional; conditions: A549, 24 h
[12] = activation of miR-122 Renilla sensor silencing – cell-based, Huh7 psiCHECK-miR122, Renilla luciferase, cherry-picked, dose response (AID 651956); format: functional;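 also: huh7 hepatoma cells stably carrying a psiCHECK-2 miR-122 sensor plasmid; renilla luciferase signal reporting endogenous miR-122 activity after 48 h compound exposure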
[13] = lung carcinoma cell viability loss – CellTiter-Glo luminescence, dry powder, set 17, dose response (AID 1117284); format: functional, cell-based; conditions: A549
Paired box protein Pax-8 = Paired box protein Pax-8 (Homo sapiens, UniProt Q06710); assay: PAX8 transcriptional activity inhibition in RMG-I – RMG-I cells, luciferase, cherry-pick, dose response (AID 687027); format: functional, cell-based;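 also: luciferase reporter driven by Pax8 target thyroperoxidase promoter measured by SteadyGlo luminescence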
HeLa = assay: ATP-based viability loss in HeLa cells – cell-based, CellTiter-Glo luminescence, cherry-pick samples, cytotoxicity control for MITF activator project, dose response (AID 540259); format: functional; conditions: Homo sapiens
Bcl-2-related protein A1 [14] = biological target: T1, Bcl-2-related protein A1 (Mus musculus, UniProt Q07440); assay: Bfl-1 binding inhibitors, SAR follow-up, biochemical, fluorescence polarization (AID 1070)
T1 sequence (Q07440 whole entry): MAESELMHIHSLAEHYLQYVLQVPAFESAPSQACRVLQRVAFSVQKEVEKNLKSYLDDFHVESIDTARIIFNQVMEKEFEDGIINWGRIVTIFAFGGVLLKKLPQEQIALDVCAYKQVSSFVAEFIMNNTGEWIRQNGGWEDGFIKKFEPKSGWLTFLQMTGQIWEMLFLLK

Bcl-2-related protein A1 [15] = biological target: T1, Bcl-2-related protein A1; assay: small-molecule antagonists of Bfl-1/BH3 interaction – biochemical, TR-FRET, mouse Bfl-1, confirmation (AID 621);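 also: TR-FRET binding of GST-Bfl-1 to FITC-labelled Bid peptide via terbium antibody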
[16] = biological target: T2, Tyrosine-protein phosphatase non-receptor type 7 (Homo sapiens, UniProt P35236); assay: HePTP tyrosine phosphatase activity blockers – biochemical, absorbance, leukemia target, primary screen (AID 521); format: functional
T2 sequence (P35236 whole entry): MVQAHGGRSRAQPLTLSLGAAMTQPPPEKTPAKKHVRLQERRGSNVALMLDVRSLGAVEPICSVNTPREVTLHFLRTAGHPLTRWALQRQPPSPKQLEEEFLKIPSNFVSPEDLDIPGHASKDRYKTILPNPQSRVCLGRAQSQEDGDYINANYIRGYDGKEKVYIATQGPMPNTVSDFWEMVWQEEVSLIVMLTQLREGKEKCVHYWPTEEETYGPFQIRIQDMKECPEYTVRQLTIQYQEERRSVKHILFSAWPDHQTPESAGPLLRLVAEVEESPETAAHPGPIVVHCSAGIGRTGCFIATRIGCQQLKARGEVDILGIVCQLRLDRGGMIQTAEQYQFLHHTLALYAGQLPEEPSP

[17] = blockers of HIV-1 ZM109 envelope-driven cell-cell fusion – HeLa effector, CEM target cells, luciferase, cherry-pick, dose response (AID 652058); format: functional, cell-based;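 also: luciferase signal from HIV-1 Env mediated cell-cell fusion of effector and target cells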
[18] = biological target: T3, Oxysterols receptor LXR-beta (Homo sapiens, UniProt P55055); assay: LXR agonists, Gal4 luciferase reporter, dose response, counter-screen for ssDAF-12 agonist project, cell-based, luminescence, HEK293, S. stercoralis campaign (AID 720737); format: functional; conditions: read-out: IC50 (the source's name)
T3 sequence (P55055 whole entry): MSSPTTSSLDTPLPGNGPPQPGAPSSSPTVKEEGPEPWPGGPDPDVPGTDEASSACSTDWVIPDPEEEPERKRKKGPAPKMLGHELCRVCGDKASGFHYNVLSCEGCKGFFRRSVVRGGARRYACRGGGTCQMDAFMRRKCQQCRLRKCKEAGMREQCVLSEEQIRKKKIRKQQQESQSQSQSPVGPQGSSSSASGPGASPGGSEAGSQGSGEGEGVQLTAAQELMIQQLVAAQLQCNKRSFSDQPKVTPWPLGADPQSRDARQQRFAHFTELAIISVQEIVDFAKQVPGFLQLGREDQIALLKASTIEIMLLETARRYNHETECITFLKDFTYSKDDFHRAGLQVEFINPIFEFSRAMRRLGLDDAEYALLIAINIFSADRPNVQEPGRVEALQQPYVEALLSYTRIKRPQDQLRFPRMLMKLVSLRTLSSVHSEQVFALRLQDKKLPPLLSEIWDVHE

[19] = Luminescence-based cell-based high throughput dose response assay to identify activators of the DAF-12 from the parasite S. stercoralis (ssDAF-12).; format: functional
[20] = NIH3T3 cell viability loss – ATP luminescence, mouse fibroblasts, counter-screen, dose response (AID 2010); format: functional, cell-based;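 also: cells exposed to compound for about 90 hours before reading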
[21] = Trypanosoma cruzi growth suppression in host cells – NIH3T3 host cells, beta-gal luminescence, confirmation (AID 2044); format: functional, cell-based;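 also: intracellular parasites grown in NIH/3T3 mouse fibroblasts as host cells; luminescent beta-galactosidase reporter signal from transgenic T. cruzi replicating inside host cells; inhibitors lower the luminescence signal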
[22] = P. falciparum Dd2 growth inhibitors, dose response, SYBR Green, cherry-picked samples (AID 1159567); format: functional, cell-based
[23] = toxicity to human hepatoma HepG2 cells – cell-based, cherry-picked samples, cytotoxicity control, dose response (AID 1159577); format: functional
[24] = Dd2 malaria parasite growth inhibition potency – SYBR Green, dry powder samples, dose response (AID 1159566); format: functional, cell-based;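 also: potency for growth inhibition with lower SYBR green DNA signal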
[25] = Dd2 parasite growth inhibition in erythrocytes – SYBR Green, dry powder samples, set 9, dose response (AID 1159568); format: functional, cell-based
[26] = growth inhibition of PfATP4-mutant resistant parasites – NITD609-resistant line, SYBR Green, dry powder, dose response (AID 1159571); format: functional, cell-based;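 also: parasites synchronized at ring stage by sorbitol before testing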
[27] = growth inhibition of yeast DHODH-expressing 3D7 parasites – SYBR Green, dry powder samples, dose response (AID 1159570); format: functional, cell-based;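 also: parasite growth measured after 72 hours of compound exposure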
[28] = toxicity to human HepG2 hepatoma cells – cell-based, plate reader, dry powder samples, cytotoxicity control, dose response (AID 1159569); format: functional;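 also: inhibitor potency with signal falling toward the positive control level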
Protein Tat = Protein Tat (Human immunodeficiency virus type 1 group M subtype B (isolate HXB2)(HIV-1), UniProt P04608); format: functional;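 also: tat binding to TAR RNA read out by fluorescence polarization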
[29] = biological target: T4, Dual specificity protein phosphatase 6 (Rattus norvegicus, UniProt Q64346); assay: inhibition of rat DUSP6 enzyme activity – biochemical, in vitro, primary screen (AID 425)
T4 sequence (Q64346 whole entry): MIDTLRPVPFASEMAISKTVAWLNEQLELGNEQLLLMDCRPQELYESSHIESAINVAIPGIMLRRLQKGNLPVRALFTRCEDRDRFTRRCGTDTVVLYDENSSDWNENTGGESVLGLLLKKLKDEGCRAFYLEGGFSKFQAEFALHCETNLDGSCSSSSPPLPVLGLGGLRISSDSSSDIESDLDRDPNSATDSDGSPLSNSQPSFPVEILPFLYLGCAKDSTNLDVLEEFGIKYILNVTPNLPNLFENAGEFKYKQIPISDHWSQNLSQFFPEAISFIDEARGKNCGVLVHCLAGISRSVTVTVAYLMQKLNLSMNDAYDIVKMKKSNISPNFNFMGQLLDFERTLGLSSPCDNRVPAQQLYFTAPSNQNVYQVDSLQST

[30] = biological target: Eukaryotic translation initiation factor 4E (Mus musculus, UniProt P63073); assay: blockers of eIF4G binding by eIF4E – biochemical, TR-FRET, dose response (AID 855); format: functional;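 also: potency for disrupting eIF4E binding to eIF4GI seen as loss of FRET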
[31] = biological target: Induced myeloid leukemia cell differentiation protein Mcl-1 (Homo sapiens, UniProt Q07820); format: functional
[32] = Luminescence Cell-Based Dose Response to Identify Activators of 5'UTR Stem-Loop Driven Prion Protein mRNA Translation in H4-C Neuroglioblastoma Cells. [Related pubchem assays: 1829 (Project Summary), 1814 (Primary HTS)]; format: functional
[33] = Luminescence Cell-Based Dose Response to Identify Activators of Luciferase Translation or Activity in H4-C Neuroglioblastoma Cells. [Related pubchem assays: 1829 (Project Summary), 1814 (Primary HTS)]; format: functional
[34] = Luminescence Cell-Based Dose Confirmation to Identify Activators of 5'UTR Stem-Loop Driven Alpha-Synuclein mRNA Translation in H4 Neuroglioblastoma Cells. [Related pubchem assays: 1829 (Project Summary), 1814 (Primary HTS)]; format: functional
[35] = Luminescence Cell-Based Dose Response HTS to Identify Activators of Luciferase Translation or Activity in H4 […] Cells. [Related pubchem assays: 1829 (Project Summary), 1814 (Primary HTS)]; format: functional

Sequence of Induced myeloid leukemia cell differentiation protein Mcl-1 (Q07820 whole entry): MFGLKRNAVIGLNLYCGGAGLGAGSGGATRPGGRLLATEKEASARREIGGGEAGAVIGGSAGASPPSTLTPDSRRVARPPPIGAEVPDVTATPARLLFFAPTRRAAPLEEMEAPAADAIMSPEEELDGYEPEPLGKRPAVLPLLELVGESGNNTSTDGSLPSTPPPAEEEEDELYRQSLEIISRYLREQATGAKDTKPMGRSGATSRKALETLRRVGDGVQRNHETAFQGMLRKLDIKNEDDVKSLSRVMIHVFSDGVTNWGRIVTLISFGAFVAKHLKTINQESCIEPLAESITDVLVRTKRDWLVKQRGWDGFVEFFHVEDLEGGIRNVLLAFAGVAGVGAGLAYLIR
Sequence of Protein Tat (P04608 whole entry): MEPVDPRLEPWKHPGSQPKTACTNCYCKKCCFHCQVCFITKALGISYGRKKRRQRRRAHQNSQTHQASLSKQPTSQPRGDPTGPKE
Sequence of Eukaryotic translation initiation factor 4E (P63073 whole entry): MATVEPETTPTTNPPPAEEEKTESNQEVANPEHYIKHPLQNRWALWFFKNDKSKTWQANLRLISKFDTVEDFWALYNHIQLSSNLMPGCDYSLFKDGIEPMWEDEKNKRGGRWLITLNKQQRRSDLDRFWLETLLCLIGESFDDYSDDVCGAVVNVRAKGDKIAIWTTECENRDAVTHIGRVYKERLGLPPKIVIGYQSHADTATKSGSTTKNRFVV
Sequence of Paired box protein Pax-8 (Q06710 whole entry): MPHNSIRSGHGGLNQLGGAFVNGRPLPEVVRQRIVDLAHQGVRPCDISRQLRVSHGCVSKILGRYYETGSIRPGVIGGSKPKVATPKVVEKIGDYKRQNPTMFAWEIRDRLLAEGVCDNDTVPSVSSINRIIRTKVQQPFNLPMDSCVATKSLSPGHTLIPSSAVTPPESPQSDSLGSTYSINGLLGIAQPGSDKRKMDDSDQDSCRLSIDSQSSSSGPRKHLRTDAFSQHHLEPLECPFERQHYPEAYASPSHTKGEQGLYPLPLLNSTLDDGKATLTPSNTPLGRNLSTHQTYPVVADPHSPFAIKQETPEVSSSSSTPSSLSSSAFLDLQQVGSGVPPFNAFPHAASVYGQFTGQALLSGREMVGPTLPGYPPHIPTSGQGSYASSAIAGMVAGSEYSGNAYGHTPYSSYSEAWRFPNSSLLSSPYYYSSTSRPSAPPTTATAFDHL
Sequence of Protein Wnt-3a (P27467 whole entry, the tested form may be a part): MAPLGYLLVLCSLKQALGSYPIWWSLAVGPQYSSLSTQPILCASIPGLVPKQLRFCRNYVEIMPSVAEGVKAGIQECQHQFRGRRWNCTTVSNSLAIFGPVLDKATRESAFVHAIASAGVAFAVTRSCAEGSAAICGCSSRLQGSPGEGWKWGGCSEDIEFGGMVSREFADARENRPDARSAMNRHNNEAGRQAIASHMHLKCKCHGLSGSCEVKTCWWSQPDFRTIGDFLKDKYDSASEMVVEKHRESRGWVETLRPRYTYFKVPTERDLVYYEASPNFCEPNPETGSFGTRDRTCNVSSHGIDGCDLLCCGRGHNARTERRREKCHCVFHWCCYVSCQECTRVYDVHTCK

CCOc1c(OC)cccc1C1CC(=O)Nc2cc3c(cc21)OCCO3 (configuration not stated)
CC50 [1]: > 40 µM (active)

COc1ccc(CC(=O)Nc2cccc(S(=O)(=O)N3CCCCCC3)c2)cc1OC
AC50 [2]: 3.47 µM (active) | AC50 (INS1): 6.12 µM (active) | IC50 (Protein Wnt-3a): 1.73 µM (active) | AC50 [3]: > 70 µM (inactive) | AC50 [4]: > 70 µM (inactive) | AC50 [5]: 2.27 µM (active) | AC50 [6]: 7.05 µM (active) | AC50 [7]: 2.12 µM (active) | AC50 [8]: 30 µM (active)

C[C@H](O)C#Cc1ccc2c(c1)O[C@H](CN(C)Cc1ccc(-c3ccccc3)cc1)[C@@H](C)CN([C@H](C)CO)S2(=O)=O
AC50 [9]: 16.7 µM (active) | AC50 [10]: 7.51 µM (active) | AC50 [11]: 59.6 µM (active) | AC50 [12]: 6.13 µM (active) | AC50 [13]: 35.1 µM (active) | AC50 (Paired box protein Pax-8): 15.9 µM (active)

c1ccc(-n2nnc(-c3cccnc3)n2)cc1
AC50 (HeLa): 213 µM (active) | IC50 (Bcl-2-related protein A1 [14]): > 100 µM (not active) | IC50 (Bcl-2-related protein A1 [15]): > 100 µM (not active)

COc1ccccc1Oc1ccc(S(=O)(=O)NCc2ccccn2)cc1
AC50 [2]: 14.8 µM (active) | IC50 [16]: > 100 µM (not active) | AC50 [17]: 25.1 µM (active)

Cc1nn(CC(=O)OC(C)C(=O)Nc2ccccc2[N+](=O)[O-])c(C)c1[N+](=O)[O-] (configuration not stated)
EC50 [18]: > 67.5 µM (inactive) | IC50 [19]: > 67.5 µM (inactive)

O=C(NCC(c1cccnc1)N1CCN(c2ccccc2F)CC1)OCc1ccccc1 (configuration not stated)
EC50 (cells): 0.071 µM (active) | EC50 [20]: > 60 µM (not active) | EC50 [21]: < 0.1 µM (active)

O=C(C1CCCN(Cc2ccc(Cl)cc2)C1)N1CCCCC1 (configuration not stated)
EC50 (cells): 0.055 µM (active) | EC50 [20]: > 30 µM (not active) | EC50 [21]: < 0.1 µM (active)

COc1ccc2c3c(n(C)c2c1)[C@@H](CO)NCC31CN(Cc2ccc(-c3ccccn3)cc2)C1
AC50 [22]: 1.66 µM (active) | AC50 [23]: 20.4 µM (active)

C[C@@H]1CN([C@H](C)CO)S(=O)(=O)c2ccc(C#C[C@@H](C)O)cc2O[C@H]1CN(C)Cc1ccc(-c2ccccc2)cc1
AC50 [11]: > 60 µM (inactive) | AC50 [13]: > 52 µM (inactive)

CCCNC(=O)N1[C@H](C#N)[C@H](c2ccc(-c3cccc(OC)c3)cc2)[C@@H]1CO
AC50 [22]: 0.56 µM (active) | AC50 [24]: 0.168 µM (active) | AC50 [2]: 25.5 µM (active) | AC50 [25]: 0.171 µM (active) | AC50 [26]: 0.278 µM (active) | AC50 [27]: 1.4 µM (active) | AC50 [28]: 90.7 µM (active)

CCOC(=O)C1CCN(C(=O)Nc2ccc3nc(-c4ccco4)c(-c4ccco4)nc3c2)CC1
IC50 (Protein Tat): 2.01 µM (inconclusive) | IC50 [29]: > 10 µM (not active) | IC50 [30]: 21.2 µM (inactive) | IC50 [31]: 1.46 µM (active)

CCOC(=O)c1c(C)[nH]c(N=Nc2ccc(C)cc2)c1C
EC50 [32]: 0.305 µM (active) | EC50 [33]: 0.3 µM (active) | EC50 [34]: 0.387 µM (active) | EC50 [35]: < 0.1 µM (active)

Clc1ccccc1Cn1nnc2c(NCCN3CCOCC3)ncnc21
IC50 [16]: > 100 µM (not active)

Cn1/c(=N\C(=O)c2ccco2)sc2ccccc21
EC50 [18]: > 67.5 µM (inactive) | IC50 [19]: > 67.5 µM (inactive)
